Experimental data reported in paper PMC12442245, “Activity Analysis of the P2X Receptor Antagonist PPADS against Signal Transducer and Activator of Transcription Proteins” (Chembiochem, 2025).

Tests used:
Assay type in all cases: binding
STAT3 [1] = molecular target: T1, STAT3 (Homo sapiens, UniProt P40763); assay: Competitive fluorescence polarization (FP) assay, STAT3; conditions: no reducing agent, 1 h
Description: Screening of chemical libraries
Screening of chemical libraries comprising approximately 5000 known bioactive compounds in fluorescence polarization-based assays against phosphorylation-dependent protein-protein interaction domains, including STAT proteins, has been described.[1] PPADS was purchased from Sigma-Aldrich, and iso-PPADS from Bio-Techne.
(§1) Fluorescence polarization assays
(§2) Competitive fluorescence polarization (FP) assays for STAT1,[2] STAT3,[3] STAT4,[4] STAT5a,[5] STAT5b[6] and STAT6[1] were performed as previously described. Briefly, peptide binding to proteins was analyzed using the following carboxyfluorescein (CF) -labelled pepti des at a concentration of 10 nM: STAT1: 5-CF-GpYDKPHVL-OH, STAT3: 5-CF-GpYLPQTV -NH2, STAT4: 5-CF-GpYLPQNID-OH, STAT5a and STAT5b: 5-CF-GpYLVLDKW-OH, STAT6: 5- […]
CFGp[…]-OH. Proteins were used at a final concentration representing the approximate Kd value for binding of the corresponding peptide to the protein, namely 65 nM for STAT1, 65 nM for STAT3, 35 nM for STAT4, 125 nM for STAT5a, 65 nM for STAT5b and 75 nM for STAT6. […] FP was measured using an Infinite F500 plate reader (Tecan) and measurements were converted into percent inhibition according to the binding curve equation. Curves were plotted and best fits calculated using OriginPro […]

STAT5a = molecular target: T2, STAT5a (Homo sapiens, UniProt P42229); assay: HTRF assay, STAT5a; conditions: STAT5a 110 nM, without reducing agent, 1 h
T2 sequence (P42229 1-794): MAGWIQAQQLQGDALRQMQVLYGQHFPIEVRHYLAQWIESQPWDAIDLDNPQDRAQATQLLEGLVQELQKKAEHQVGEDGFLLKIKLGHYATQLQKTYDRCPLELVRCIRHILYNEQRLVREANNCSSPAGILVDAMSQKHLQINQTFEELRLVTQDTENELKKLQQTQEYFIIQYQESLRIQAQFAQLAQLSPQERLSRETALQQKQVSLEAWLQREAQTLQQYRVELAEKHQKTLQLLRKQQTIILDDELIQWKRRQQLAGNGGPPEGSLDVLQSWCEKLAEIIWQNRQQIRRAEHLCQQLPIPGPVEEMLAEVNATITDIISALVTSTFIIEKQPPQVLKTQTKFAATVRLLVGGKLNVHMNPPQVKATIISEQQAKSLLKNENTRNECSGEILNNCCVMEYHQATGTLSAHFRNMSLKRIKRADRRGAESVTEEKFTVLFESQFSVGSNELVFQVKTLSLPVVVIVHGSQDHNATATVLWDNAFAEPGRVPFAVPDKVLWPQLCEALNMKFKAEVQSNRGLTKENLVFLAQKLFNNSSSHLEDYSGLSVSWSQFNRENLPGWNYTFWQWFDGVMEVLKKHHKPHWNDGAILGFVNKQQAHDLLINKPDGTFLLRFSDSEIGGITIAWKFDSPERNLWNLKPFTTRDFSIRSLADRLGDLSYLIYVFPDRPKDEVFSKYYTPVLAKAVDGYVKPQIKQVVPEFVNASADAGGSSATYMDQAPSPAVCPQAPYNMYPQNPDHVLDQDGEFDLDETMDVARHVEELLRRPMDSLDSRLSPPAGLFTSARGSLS
Description: The azo dyes PPADS and iso‐PPADS have a deep red color in aqueous solution. […] In order to exclude this possibility, we established homogeneous time‐resolved fluorescence resonance energy transfer (HTRF) assays to confirm the degree of binding between STAT4, STAT5a, and STAT5b and the respective 5‐carboxyfluorescein‐labeled binding peptides used in the FP assay. In addition, an HTRF assay was established for STAT3, one of the STAT proteins targeted to a lesser extent in FP assays, as a specificity control (Figure 1B,C). The STAT protein constructs each contain a 6x‐His‐tag.^[ [15], [16], [17], [22] ^] A Tb^3+‐cryptate fused to an anti‐6x‐His antibody was chosen as the long‐lived fluorescent donor, while the carboxyfluorescein linked to the respective STAT‐binding peptides served as the acceptor (Figure 2A). Emission was measured with a time delay of 60 μs after excitation, allowing any initial compound fluorescence to decay beforehand. […]
Screening of chemical libraries comprising approximately 5000 known bioactive compounds in fluorescence polarization-based assays against phosphorylation-dependent protein-protein interaction domains, including STAT proteins, has been described.[1] […]
as §1
as §2, with “STAT3,[3] STAT4,[4] STAT5a,[5] STAT5b[6] and STAT6[1] were performed as previously described.” left out
CFGp[…]-OH. […] FP was measured using an Infinite F500 plate reader (Tecan) and measurements were converted into percent inhibition according to the binding curve equation. Curves were plotted and best fits calculated using OriginPro […]
Homogenous time-resolved fluorescence (HTRF) assays for STAT3, STAT4, STAT5a and STAT5b were carried out using Cisbio Monoclonal Antibody Anti-6His-Tb Gold as the fluorescence donor (Perkin Elmer) and the corresponding CF-labelled binding peptide as the acceptor. […] The average reading from 3 wells was obtained. […]

STAT3 [2] = molecular target: T1, STAT3; assay: HTRF assay, STAT3; parameters: the endogenous full‐length proteins (between 748 and 793 amino acids for STAT3/4/5a/5b); endogenous in cells; host or cells: NK-92 cells (DSMZ), whole-cell lysate; conditions: STAT3 110 nM, without reducing agent, 1 h
Description: In addition, an HTRF assay was established for STAT3, one of the STAT proteins targeted to a lesser extent in FP assays, as a specificity control (Figure 1B,C). […] A Tb^3+‐cryptate fused to an anti‐6x‐His antibody was chosen as the long‐lived fluorescent donor, while the carboxyfluorescein linked to the respective STAT‐binding peptides served as the acceptor (Figure 2A). Emission was measured with a time delay of 60 μs after excitation, allowing any initial compound fluorescence to decay beforehand.
Homogenous time-resolved fluorescence (HTRF) assays for STAT3, STAT4, STAT5a and STAT5b were carried out using Cisbio Monoclonal Antibody Anti-6His-Tb Gold as the fluorescence donor (Perkin Elmer) and the corresponding CF-labelled binding peptide as the acceptor. Protein at 110 nM (STAT3), 30 nM (STAT4), 110 nM (STAT 5a) or 80 nM (STAT5b) was combined with terbium-labelled antibody at the recommended concentration, 150 nM CF-labelled peptide and compound as indicated, and incubated at room temperature for 1 h. […] Fluorescence /luminescence was measured in Proxiplate 384-well plates (Perkin Elmer), using a 340 nm excitation filter with 520 nm and 620 nm emission filters, with 60 µs time delay. The average reading from 3 wells was obtained. After subtraction of the blank (buffer only) from each reading, the ratio of the 520 nm / 620 nm readings was calculated. […]

T1 sequence (P40763 whole entry, species assumed): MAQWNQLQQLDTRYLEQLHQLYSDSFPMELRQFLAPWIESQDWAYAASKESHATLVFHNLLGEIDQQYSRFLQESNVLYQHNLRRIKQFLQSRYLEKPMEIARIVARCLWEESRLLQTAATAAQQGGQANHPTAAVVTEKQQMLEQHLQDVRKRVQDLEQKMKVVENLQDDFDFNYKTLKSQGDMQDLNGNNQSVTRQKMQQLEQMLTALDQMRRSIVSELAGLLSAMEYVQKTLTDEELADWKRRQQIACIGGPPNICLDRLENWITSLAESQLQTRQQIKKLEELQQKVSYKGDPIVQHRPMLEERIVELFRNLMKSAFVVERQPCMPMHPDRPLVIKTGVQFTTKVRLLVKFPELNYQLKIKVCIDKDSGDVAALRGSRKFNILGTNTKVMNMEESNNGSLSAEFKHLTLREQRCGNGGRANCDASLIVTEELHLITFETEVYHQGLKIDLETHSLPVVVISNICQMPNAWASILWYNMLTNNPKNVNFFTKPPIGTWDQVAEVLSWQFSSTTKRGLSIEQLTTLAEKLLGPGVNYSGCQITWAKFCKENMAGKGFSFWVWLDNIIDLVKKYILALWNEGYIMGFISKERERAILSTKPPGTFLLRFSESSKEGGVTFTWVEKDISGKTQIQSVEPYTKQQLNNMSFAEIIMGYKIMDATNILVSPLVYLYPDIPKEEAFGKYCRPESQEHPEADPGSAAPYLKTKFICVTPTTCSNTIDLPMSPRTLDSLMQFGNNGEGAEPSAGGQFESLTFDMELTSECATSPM

**Q.** Which IC50 (STAT3 [1]) does the source give for `Cc1nc(/N=N/c2ccc(S(=O)(=O)O)cc2S(=O)(=O)O)c(COP(=O)(O)O)c(C=O)c1O` [PPADS, pyridoxalphosphate‐6‐azophenyl‐2',4'‐disulfonic acid] here?
**A.** The IC50 was 22.6 ± 1.6 µM.

**Q.** And the IC50 (STAT5a)?
**A.** The IC50 was 1.41 ± 0.35 µM.

**Q.** And the IC50 (STAT3 [2])?
**A.** The IC50 was 29.6 ± 4 µM.

**Q.** With `Cc1nc(/N=N/c2cc(S(=O)(=O)O)ccc2S(=O)(=O)O)c(COP(=O)(O)O)c(C=O)c1O` [iso‐PPADS] as the compound, how does the IC50 (STAT3 [1]) read?
**A.** Its IC50 is 54 ± 14 µM.

**Q.** What about the IC50 (STAT5a) of the same compound?
**A.** Its IC50 is 8.2 ± 0.7 µM.

**Q.** And the IC50 (STAT3 [2])?
**A.** The IC50 was 31.9 ± 4 µM.
